The record followed here is publication PMC10533593 (Molecular Neurobiology, 2023).

The term EC50 denotes the midpoint of the concentration-response curve.

Assay [1] addresses T1, D4.4R (Homo sapiens, UniProt P21917).
T1 construct: gene DRD4; non-fused full-length human D4.4R in pcDNA3.1, transiently expressed in HEK-293T without alpha1AR; Galphai1-Rluc, Ggamma2-YFP and Gbeta1 reporters co-transfected
T1 sequence (P21917 1-419): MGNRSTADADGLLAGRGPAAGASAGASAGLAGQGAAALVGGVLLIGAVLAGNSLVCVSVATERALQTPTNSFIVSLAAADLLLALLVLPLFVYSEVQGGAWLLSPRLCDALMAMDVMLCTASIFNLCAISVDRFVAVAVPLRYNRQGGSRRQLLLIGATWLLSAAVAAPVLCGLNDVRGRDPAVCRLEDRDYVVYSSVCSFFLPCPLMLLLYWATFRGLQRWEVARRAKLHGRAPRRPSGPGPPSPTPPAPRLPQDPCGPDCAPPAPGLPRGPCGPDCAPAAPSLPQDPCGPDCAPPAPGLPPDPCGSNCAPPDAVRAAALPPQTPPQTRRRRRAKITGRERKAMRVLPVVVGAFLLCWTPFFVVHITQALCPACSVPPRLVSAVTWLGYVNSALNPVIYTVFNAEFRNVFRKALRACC
The format is cell-based. The settings on record: antagonist 1 μM, added 10 min before dopamine; D4.4R alone.

Assay [2] has as its target human dopamine D4 receptor, polymorphic variant D4.4R, fused to Rluc (human) (UniProt P21917). Briefly: FRET or BRET; BRET saturation in intact HEK-293T cells: constant amount of cDNA of the Rluc-fused receptor, increasing amounts of cDNA of the YFP-fused receptor; coelenterazine H 5 μM; HBSS with 0.1% glucose; single-phase saturation fit. Background: BRET reads energy transfer from a luciferase to a nearby fluorophore.

For assay [3], the target named is human α1A adrenoreceptor fused to Rluc (human) (UniProt P35348). The description is as above.
The target in assay [4] is T2, α1AR-D4.4R (D4.4R read-out) (Homo sapiens, UniProt P21917).
T2 construct: gene DRD4; D4.4R (non-fused) co-expressed with alpha1AR in HEK-293T; alpha1AR non-fused in Gi assay, alpha1AR-YFP in beta-arrestin-2 assay; with Alpha-1A adrenergic receptor
T2 sequence (P21917 1-419): T1 sequence (P21917 1-419)
T2 sequence (P35348 1-466 partner): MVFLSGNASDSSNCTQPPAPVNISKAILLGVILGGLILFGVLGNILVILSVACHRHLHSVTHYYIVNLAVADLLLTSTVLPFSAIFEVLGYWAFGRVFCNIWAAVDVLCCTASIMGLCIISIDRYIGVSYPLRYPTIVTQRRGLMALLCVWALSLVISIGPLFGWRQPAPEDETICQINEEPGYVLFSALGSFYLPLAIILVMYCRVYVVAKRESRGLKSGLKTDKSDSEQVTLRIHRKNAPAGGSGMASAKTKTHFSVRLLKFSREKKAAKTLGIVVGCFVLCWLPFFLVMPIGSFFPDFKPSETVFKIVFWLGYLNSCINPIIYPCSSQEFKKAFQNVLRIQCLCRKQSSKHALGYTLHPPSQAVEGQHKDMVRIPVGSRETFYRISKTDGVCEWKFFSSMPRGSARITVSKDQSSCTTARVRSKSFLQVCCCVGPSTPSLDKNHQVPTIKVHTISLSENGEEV
Briefly: BRET beta-arrestin-2-Rluc recruitment to alpha1AR-YFP in HEK-293T. The class given is cell-based. From the text: BRET beta-arrestin-2-Rluc recruitment to alpha1AR-YFP in HEK-293T on α1AR-D4.4R (D4.4R read-out)

For assay [5], the target named is T3, α1AR (Homo sapiens, UniProt P35348).
T3 construct: gene ADRA1A; non-fused full-length human alpha1AR in pcDNA3.1, transiently expressed in HEK-293T without D4R; Galphaq-Rluc or Galphas-Rluc, Ggamma2-YFP and Gbeta1 reporters co-transfected
T3 sequence (P35348 1-466): T2 sequence (P35348 1-466 partner)
The class given is cell-based. The note with it: antagonist 1 μM, added 10 min before A61603; alpha1AR alone.

Assay [6] deals with T3, α1AR. Kind of assay: BRET Gq and Gs activation in HEK-293T. The class given is cell-based. The settings on record: agonist; alpha1AR alone; 10 μM dopamine; intact cells.

`Clc1ccc(N2CCN(Cc3c[nH]c4ncccc34)CC2)cc1` [L745870]: the “BRET Gi1 activation in HEK-293T, antagonism of dopamine” value in assay [1] is given as “the selective D4R antagonist L745870, but not the α1AR antagonist prazosin, antagonized the effect of dopamine”.

“human α1A adrenoreceptor fused to YFP (from UniProt P35348 1-466)” yielded a BRET50 in assay [2] of 33.

The molecule “human dopamine D4 receptor, polymorphic variant D4.7R, fused to YFP” had a BRET50 in assay [3] of 25.

`Cc1cccc(NC(=O)CN2CCC(c3ccccn3)CC2)c1` [A412997]: the EC50 in assay [4] worked out at 30 ± 19 nM.

As to `COc1cc2nc(N3CCN(C(=O)c4ccco4)CC3)nc(N)c2cc1OC` [prazosin], the “BRET Gq and Gs activation in HEK-293T, antagonism of A61603” value in assay [5] was “the effect of A61603 was counteracted by prazosin”.

Regarding `NCCc1ccc(O)c(O)c1` [dopamine], in assay [6], the “% of norepinephrine effect at 10 μM” value is given as less than 50%.
